ChEMBL document CHEMBL1201862, “PubChem BioAssay data set” (2004)
Active and inactive are the calls of the source.

What was measured:
[1] = target: T1, Fructose-bisphosphate aldolase (Mycobacterium tuberculosis, UniProt P9WQA3); assay: Fluorescence-based biochemical high throughput dose response assay for inhibitors of the fructose-bisphosphate aldolase (FBA) of M. tuberculosis.; assay type: functional
T1 sequence (P9WQA3 whole entry): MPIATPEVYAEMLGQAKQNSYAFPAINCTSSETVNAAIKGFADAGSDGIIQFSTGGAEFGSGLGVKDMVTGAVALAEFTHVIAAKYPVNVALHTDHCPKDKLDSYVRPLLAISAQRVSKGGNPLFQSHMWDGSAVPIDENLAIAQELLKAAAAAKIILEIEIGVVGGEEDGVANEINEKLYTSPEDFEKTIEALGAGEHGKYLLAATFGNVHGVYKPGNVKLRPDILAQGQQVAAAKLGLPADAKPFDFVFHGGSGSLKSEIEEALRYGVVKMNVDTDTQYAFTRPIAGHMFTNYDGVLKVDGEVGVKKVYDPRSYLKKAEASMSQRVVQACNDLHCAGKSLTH

[2] = cells; assay type: functional, cell-based
[3] = cells; assay type: functional, cell-based; remark: listed apart in the source
[4] = blockers of HIV-1 envelope-mediated cell-cell fusion – cherry-pick, dose response (AID 652057); assay type: functional, cell-based
[5] = blockers of HIV-1 ZM109 envelope-driven cell-cell fusion – HeLa effector, CEM target cells, luciferase, cherry-pick, dose response (AID 652058); assay type: functional, cell-based;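 also: luciferase signal from HIV-1 Env mediated cell-cell fusion of effector and target cells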
[6] = off-target signal loss in HeLa-CEM21 co-culture – HeLa F-luc CTL cells, cherry-picked, counter-screen for HIV-1 Env fusion inhibitor project, dose response (AID 652040); assay type: functional, cell-based;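 also: potency for signal decrease marking cytotoxic or nonspecific inhibition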
[7] = HIV-1 AD8 envelope cell-cell fusion blockers – cherry-pick, dose response (AID 652062); assay type: functional, cell-based;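 also: luciferase signal from cell-cell fusion driven by HIV-1 clade B AD8 Env; potency is for inhibitors of fusion seen as a drop in luminescence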
[8] = system: HEK293; assay: EBV LMP1 TES2 canonical NF-kB signalling blockers – cell-based, HEK293, luciferase, cherry-pick, dose response (AID 588343); assay type: functional; details: Homo sapiens
[9] = target: Genome polyprotein (dengue virus type 2, UniProt P29990); assay: flavivirus cap methylation enzyme inhibition – biochemical, confirmation dose response, primary screen (AID 588689); assay type: functional
Genome polyprotein, sequence (P29990 2492-3391 limits assumed): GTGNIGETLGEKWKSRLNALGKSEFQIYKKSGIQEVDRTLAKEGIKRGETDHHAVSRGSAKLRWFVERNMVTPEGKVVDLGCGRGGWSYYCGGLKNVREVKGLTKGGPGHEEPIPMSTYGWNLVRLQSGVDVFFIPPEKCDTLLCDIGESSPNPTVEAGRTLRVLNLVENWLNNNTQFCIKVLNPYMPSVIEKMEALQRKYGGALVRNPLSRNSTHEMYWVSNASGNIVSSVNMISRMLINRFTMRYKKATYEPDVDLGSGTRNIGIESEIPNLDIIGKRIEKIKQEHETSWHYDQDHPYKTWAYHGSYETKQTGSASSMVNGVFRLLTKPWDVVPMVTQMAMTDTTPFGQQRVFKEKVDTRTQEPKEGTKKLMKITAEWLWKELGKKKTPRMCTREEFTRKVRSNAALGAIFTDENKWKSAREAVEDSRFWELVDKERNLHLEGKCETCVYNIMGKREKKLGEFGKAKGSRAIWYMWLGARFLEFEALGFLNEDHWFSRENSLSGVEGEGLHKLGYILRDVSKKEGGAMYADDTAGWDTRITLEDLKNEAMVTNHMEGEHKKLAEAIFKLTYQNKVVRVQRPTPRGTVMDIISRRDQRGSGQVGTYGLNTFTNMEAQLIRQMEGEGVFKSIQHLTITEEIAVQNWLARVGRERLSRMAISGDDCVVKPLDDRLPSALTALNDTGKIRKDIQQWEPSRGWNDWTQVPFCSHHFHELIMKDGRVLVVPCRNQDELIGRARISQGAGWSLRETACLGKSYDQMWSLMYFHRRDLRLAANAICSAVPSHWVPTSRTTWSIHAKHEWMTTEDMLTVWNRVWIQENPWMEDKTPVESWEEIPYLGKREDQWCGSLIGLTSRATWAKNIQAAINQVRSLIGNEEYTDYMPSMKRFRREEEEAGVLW

[10] = target: T2, Histone-lysine N-methyltransferase NSD2 (Homo sapiens, UniProt O96028); assay type: biochemical
T2 sequence (O96028 whole entry): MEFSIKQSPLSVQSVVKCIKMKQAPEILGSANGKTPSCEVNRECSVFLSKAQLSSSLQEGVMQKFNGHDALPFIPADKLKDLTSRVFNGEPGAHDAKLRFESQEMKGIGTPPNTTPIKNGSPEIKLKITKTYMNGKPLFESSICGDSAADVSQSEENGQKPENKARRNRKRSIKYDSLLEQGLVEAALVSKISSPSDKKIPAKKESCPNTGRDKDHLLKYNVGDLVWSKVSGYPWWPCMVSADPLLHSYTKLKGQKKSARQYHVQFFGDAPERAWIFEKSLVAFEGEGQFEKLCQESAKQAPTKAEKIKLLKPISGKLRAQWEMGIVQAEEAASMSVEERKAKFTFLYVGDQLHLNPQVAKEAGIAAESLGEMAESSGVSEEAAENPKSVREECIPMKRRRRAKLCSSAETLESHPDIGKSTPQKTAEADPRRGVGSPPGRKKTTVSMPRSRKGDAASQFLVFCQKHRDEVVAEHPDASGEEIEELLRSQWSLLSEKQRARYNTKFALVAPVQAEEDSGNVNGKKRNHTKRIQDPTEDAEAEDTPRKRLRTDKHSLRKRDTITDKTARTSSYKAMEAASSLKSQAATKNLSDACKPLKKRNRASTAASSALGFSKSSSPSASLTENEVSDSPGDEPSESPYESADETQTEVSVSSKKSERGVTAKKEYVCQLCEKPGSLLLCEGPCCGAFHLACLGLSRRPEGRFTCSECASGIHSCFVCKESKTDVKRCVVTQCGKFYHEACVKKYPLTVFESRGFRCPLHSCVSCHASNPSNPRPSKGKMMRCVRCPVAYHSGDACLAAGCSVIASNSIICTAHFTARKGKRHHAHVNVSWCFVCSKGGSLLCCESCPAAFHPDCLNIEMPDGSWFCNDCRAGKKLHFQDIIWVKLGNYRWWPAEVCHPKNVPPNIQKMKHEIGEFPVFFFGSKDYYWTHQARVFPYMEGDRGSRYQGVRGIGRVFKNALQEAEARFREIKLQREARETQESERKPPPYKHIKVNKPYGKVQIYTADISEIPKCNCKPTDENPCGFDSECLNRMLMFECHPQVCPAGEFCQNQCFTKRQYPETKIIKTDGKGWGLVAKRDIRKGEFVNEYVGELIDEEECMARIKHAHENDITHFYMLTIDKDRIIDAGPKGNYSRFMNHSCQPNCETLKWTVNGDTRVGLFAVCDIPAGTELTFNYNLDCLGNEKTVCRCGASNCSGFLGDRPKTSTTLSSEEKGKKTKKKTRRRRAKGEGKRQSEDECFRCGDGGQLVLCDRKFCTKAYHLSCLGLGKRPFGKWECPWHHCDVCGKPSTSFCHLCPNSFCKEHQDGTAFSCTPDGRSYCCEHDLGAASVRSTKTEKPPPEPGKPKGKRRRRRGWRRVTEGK

[11] = target: T3, Short transient receptor potential channel 4 (Mus musculus, UniProt Q9QUQ5); assay: block of DAMGO-driven TRPC4 calcium entry – cell-based, HEK293 TRPC4/mu-opioid, Fluo-4 calcium, dose response (AID 434942); assay type: functional;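 also: potency of inhibitors blocking the TRPC4 calcium response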
T3 sequence (Q9QUQ5 whole entry): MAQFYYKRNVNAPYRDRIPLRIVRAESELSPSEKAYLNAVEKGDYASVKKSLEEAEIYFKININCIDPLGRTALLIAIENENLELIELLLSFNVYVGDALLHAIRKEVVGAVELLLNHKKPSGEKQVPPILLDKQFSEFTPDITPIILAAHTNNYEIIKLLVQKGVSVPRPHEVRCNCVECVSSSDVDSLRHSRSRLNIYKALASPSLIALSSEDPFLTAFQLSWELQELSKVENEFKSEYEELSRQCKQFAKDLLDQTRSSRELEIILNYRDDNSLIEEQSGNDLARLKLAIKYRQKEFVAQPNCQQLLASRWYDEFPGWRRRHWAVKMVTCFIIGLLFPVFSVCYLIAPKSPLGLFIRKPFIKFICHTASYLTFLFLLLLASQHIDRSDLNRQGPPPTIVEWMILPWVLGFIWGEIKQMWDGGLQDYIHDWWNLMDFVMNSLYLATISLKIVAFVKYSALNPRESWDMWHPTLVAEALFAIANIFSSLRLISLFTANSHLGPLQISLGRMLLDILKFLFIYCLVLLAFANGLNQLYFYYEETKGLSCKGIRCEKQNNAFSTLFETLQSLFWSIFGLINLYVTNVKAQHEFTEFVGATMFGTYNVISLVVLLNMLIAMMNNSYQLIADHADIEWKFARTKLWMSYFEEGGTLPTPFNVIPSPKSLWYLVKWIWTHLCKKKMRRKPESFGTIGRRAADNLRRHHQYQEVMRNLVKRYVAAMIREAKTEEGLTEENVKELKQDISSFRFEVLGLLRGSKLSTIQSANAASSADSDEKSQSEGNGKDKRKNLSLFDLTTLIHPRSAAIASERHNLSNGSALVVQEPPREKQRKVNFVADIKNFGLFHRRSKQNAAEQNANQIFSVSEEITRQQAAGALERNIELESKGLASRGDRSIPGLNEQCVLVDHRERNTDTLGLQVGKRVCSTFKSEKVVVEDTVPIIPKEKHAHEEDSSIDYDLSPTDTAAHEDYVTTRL

[12] = target: Large T antigen (Simian virus 40, UniProt P03070); assay type: functional, Betapolyomavirus macacae;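 also: Confirmatory-stage PubChem screen for compounds that inhibit SV40 T antigen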
Large T antigen, sequence (P03070 whole entry): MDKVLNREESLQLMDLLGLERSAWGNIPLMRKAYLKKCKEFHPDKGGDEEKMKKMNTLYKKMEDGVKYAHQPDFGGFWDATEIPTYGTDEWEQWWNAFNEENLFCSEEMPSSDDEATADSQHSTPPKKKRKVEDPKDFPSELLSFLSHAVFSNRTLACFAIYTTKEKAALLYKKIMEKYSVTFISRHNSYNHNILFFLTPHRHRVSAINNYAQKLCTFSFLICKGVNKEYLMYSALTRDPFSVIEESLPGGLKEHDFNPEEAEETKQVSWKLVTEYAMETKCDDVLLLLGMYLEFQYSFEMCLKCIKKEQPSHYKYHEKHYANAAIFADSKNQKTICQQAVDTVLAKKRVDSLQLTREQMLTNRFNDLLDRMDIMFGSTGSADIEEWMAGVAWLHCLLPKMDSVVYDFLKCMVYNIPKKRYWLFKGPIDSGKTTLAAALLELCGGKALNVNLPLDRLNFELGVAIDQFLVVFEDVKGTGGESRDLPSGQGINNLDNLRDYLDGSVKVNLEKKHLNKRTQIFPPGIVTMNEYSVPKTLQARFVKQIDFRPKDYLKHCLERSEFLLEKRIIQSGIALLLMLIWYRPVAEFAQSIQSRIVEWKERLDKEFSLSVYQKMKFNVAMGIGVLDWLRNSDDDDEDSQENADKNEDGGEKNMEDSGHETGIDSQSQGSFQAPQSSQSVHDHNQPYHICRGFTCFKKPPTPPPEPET

[13] = target: T4, Cytochrome P450 1A2 (Homo sapiens, UniProt P05177);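 also: PubChem cytochrome P450 panel assay, CYP1A2 panel member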
T4 sequence (P05177 whole entry): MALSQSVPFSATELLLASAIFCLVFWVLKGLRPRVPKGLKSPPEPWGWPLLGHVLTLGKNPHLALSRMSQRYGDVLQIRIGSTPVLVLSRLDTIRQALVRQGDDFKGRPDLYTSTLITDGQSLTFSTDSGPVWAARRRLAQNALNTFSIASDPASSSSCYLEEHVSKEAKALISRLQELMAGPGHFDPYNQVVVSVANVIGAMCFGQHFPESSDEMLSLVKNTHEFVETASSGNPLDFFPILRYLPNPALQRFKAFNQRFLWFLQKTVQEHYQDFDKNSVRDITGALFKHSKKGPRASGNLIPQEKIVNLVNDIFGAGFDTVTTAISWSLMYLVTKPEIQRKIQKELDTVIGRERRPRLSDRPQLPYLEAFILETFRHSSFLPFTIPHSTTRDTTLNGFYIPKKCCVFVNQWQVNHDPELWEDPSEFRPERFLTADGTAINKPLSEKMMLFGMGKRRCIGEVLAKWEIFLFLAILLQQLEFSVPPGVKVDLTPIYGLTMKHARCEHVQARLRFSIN

[14] = target: Cytochrome P450 3A4 (Homo sapiens, UniProt P08684);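 also: CYP3A4 tested as one member of a cytochrome P450 panel screen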
Cytochrome P450 3A4, sequence (P08684 whole entry): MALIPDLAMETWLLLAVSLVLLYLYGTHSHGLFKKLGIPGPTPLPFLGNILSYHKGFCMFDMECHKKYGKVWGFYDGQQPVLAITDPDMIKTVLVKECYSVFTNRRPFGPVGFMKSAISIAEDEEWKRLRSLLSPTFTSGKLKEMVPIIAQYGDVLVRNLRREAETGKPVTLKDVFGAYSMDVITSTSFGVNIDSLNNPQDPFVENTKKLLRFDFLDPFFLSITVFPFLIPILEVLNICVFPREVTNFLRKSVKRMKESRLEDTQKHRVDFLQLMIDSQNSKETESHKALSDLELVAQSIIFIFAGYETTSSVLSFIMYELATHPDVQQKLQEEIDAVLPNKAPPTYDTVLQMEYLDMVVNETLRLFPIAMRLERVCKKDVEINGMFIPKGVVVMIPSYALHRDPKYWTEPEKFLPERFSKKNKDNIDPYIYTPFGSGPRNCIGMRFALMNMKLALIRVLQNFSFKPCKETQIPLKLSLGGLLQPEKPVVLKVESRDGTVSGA

[15] = Luminescence Cell-Based Dose Confirmation HTS to Identify Activators of 5'UTR Stem-Loop Driven Alpha-Synuclein mRNA Translation in H4 Neuroglioblastoma Cells. [Related pubchem assays: 1829 (Project Summary), 1814 (Primary HTS)]; assay type: functional
[16] = Luminescence Cell-Based Dose Response HTS to Identify Activators of Luciferase Translation or Activity in H4 […] Cells. [Related pubchem assays: 1829 (Project Summary), 1814 (Primary HTS)]; assay type: functional
[17] = system: H4; assay: Luminescence Cell-Based Dose Response HTS to Identify Activators of 5'UTR Stem-Loop Driven Prion Protein mRNA Translation in H4 Neuroglioblastoma Cells. [Related pubchem assays: 1829 (Project Summary), 1814 (Primary HTS)]; assay type: functional; details: Homo sapiens
[18] = cells; assay type: functional, cell-based; remark: listed apart in the source
[19] = target: T5, Nuclear receptor subfamily 0 group B member 1 (Homo sapiens, UniProt P51843); assay type: functional, cell-based;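 also: HEK293T cells transfected with SF-1 and DAX-1 plus StAR promoter luciferase reporter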
T5 sequence (P51843 whole entry): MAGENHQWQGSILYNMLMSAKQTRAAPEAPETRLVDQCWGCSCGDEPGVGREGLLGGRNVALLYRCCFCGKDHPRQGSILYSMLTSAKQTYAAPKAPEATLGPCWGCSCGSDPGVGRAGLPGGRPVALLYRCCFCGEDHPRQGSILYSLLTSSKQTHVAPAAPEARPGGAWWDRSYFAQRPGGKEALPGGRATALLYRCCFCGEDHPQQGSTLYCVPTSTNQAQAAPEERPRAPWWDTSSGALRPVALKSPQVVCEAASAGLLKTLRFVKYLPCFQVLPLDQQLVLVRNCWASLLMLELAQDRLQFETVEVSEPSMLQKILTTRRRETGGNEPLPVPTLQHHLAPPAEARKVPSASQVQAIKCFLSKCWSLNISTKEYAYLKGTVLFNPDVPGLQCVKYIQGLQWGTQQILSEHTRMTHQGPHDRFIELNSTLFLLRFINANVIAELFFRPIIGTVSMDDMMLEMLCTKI

## N#Cc1cc(-c2cccc(Cl)c2)cnc1O
[1]
  IC50: 2.29 µM (active)

## CCOC(=O)C(NCCc1ccccc1F)(NC(=O)CC)C(F)(F)F (stereo not drawn)
[2]
  IC50: > 29.9 µM (inactive)
[3]
  EC50: > 29.9 µM (inactive)

## CCOC(=O)c1c(C)[nH]c(C)c1C(=O)COC(=O)[C@@H](NC(=O)c1ccccc1OCC)C(C)C
[4]
  AC50: 3.71 µM (active)
[5]
  AC50: 2.71 µM (active)
[6]
  AC50: 5.72 µM (active)
[7]
  AC50: 2.19 µM (active)

## C=CCNC1=NN=C(c2cc(C)n(CCOC)c2C)CS1
[8]
  AC50: 2.08 µM (active)
[4]
  AC50: 1.56 µM (active)
[5]
  AC50: 8.09 µM (active)
[6]
  AC50: 3.9 µM (active)
[7]
  AC50: 4.19 µM (active)

## Cc1ccc(S(=O)(=O)/N=C2\C=C(NS(=O)(=O)c3ccc(C)cc3)C(=O)c3ccccc32)cc1
[9]
  IC50: 30.6 µM (active)
[10]
  AC50: 2.98 µM (active)

## NC(=O)C1CCN(C(=O)CCNS(=O)(=O)c2ccccc2F)CC1
[1]
  IC50: > 9.99 µM (inactive)

## Oc1ccc(CN2CCCCC2)nc1-c1ccccc1
[11]
  EC50: 4.73 µM (active)
[1]
  IC50: 3.34 µM (active)

## Cc1cc(N/N=C/c2ccc(O)cc2O)nc(N2CCOCC2)n1
[12]
  IC50: > 100 µM (active)
[2]
  IC50: > 29.9 µM (inactive)
[3]
  EC50: > 29.9 µM (inactive)

## CCn1nc2cc(C(=O)NCC34CC5CC(CC(C5)C3)C4)ccc2c1OC
[1]
  IC50: 1.94 µM (active)
[13]
  AC50: 12.6 µM (inconclusive)
[14]
  AC50: inconclusive

## CCOC(=O)N1CCN(C(=O)c2ccc3oc(CCCc4ccccc4)nc3c2)CC1
[15]
  EC50: 0.579 µM (active)
[16]
  EC50: 0.436 µM (active)
[17]
  EC50: 2.2 µM (active)
[18]
  IC50: > 67.5 µM (inactive)
[19]
  IC50: > 67.5 µM (inactive)
